Where a SMILES comes first, the peptide text is derived from it. [ ]: non-standard residue; d: D form. The star is where a group is joined. Cha = N[C@@H](CC1CCCCC1)C(=O)O; Boc = CC(C)(C)OC(=O)*; CF3 = FC(F)(F)*
Legend:
Renin = biological target: T1, Renin (Homo sapiens, UniProt P00797); assay: Concentration required to inhibit human plasma renin by 50% using radio-immunoassay was determined; type: cell-free
T1 sequence (P00797 whole entry): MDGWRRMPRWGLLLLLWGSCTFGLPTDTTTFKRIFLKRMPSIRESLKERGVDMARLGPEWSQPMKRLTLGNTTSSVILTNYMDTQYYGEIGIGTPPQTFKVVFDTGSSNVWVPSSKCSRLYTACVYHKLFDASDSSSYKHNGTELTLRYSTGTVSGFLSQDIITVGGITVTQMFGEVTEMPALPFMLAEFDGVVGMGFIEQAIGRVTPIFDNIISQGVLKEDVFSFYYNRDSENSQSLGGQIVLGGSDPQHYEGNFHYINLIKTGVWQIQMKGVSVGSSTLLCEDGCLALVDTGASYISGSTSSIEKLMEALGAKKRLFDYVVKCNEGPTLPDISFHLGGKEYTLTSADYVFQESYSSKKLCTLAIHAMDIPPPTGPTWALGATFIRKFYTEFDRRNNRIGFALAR

Chymotrypsinogen A = Chymotrypsinogen A (Bos taurus, UniProt P00766); assay: Concentration required to inhibit the enzyme chymotrypsin
Pepsin A = Pepsin A (Sus scrofa, UniProt P00791); assay: Concentration required to inhibit the enzyme pepsin
Sequence of Pepsin A (P00791 whole entry): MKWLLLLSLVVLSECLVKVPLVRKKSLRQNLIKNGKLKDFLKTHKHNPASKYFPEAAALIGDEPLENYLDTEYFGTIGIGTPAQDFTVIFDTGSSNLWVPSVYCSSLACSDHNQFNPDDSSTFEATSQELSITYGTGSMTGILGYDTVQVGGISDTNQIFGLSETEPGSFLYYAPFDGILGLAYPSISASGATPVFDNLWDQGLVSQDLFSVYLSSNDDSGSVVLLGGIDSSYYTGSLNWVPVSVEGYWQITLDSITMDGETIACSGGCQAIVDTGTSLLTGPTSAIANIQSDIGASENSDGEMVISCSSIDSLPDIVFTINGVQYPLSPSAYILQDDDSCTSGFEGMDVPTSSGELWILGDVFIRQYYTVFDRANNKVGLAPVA

IC50 (Renin)	Ki (Chymotrypsinogen A)	Ki (Pepsin A)	Structure (SMILES)
40 µM			CCC[C@@H](C(=O)N[C@@H](CC1CCCCC1)C(=O)C(F)(F)CN)N(C)C(=O)[C@H](Cc1ccc(OC)cc1)NC(=O)CC(C)C
27 µM			COc1ccc(C[C@H](NC(=O)CC(C)C)C(=O)N[C@H](C)C(=O)N[C@@H](CC2CCCCC2)C(=O)C(F)(F)CN)cc1
> 1 µM			CCC[C@H](NC(=O)[C@H](Cc1ccc(OC)cc1)NC(=O)CC(C)C)C(=O)N[C@@H](CC1CCCCC1)C(O)C(F)(F)CN (some centres not stated)
	2.5 µM	40 µM	CCC[C@H](NC(=O)[C@H](Cc1ccc(OC)cc1)NC(=O)CC(C)C)C(=O)N[C@@H](CC1CCCCC1)C(=O)C(F)(F)CN
25 µM			COc1ccc(C[C@H](NC(=O)CC(C)C)C(=O)CCC(=O)N[C@@H](CC2CCCCC2)C(=O)C(F)(F)CN)cc1
0.25 µM			CC(C)C[C@H](NC(=O)[C@H](Cc1ccccc1)NC(=O)OC(C)(C)C)C(=O)N[C@@H](CC1CCCCC1)C(=O)C(F)(F)F (Boc-Phe-Leu-[Cha]-CF3)
